# Source: US20170334899A1, “AMINO-SUBSTITUTED ISOTHIAZOLES” (Bayer Pharma Aktiengesellschaft, priority 2014, published 2017)
# Biological target: T1, human kinase Mps-1 (Homo sapiens, UniProt P33981)
# T1 construct: N-terminally GST-tagged human full length recombinant Mps-1 kinase; GST (N); purchased Invitrogen, Karslruhe, Germany PV4071
# T1 sequence (P33981 1-857): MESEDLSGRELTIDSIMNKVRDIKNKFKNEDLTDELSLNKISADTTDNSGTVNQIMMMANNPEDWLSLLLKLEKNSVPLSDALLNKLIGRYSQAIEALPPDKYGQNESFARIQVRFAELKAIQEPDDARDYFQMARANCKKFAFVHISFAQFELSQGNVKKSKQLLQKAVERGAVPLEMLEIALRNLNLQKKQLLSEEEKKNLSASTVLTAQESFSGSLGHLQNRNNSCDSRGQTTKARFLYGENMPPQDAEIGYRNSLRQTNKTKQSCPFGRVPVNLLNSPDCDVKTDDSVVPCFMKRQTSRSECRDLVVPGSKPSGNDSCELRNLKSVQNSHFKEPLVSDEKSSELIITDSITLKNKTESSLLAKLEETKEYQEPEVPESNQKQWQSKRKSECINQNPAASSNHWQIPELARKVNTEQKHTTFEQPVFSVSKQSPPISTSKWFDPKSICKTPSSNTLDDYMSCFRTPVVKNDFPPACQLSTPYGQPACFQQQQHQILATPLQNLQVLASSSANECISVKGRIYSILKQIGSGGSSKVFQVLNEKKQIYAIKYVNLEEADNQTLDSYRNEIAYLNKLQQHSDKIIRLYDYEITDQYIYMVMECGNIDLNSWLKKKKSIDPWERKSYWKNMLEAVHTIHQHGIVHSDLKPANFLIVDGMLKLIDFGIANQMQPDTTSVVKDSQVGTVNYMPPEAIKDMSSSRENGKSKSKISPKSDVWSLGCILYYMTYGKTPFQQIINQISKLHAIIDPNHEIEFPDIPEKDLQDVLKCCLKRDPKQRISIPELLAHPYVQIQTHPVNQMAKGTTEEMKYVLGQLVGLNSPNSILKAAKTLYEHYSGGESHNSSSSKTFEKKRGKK
# Experiment: Mps-1 kinase assay (TR-FRET)
# Type: biochemical
# Details: Mps-1 TR-FRET kinase assay; avg; read-out: Mps1 avg (IC50 [mol/l])
# Experimental: The human kinase Mps-1 phosphorylates a biotinylated substrate peptide. Detection of the phosphorylated product is achieved by time-resolved fluorescence resonance energy transfer (TR-FRET) from Europium-labelled anti-phospho-Serine/Threonine antibody as donor to streptavidin labelled with cross-linked allophycocyanin (SA-XLent) as acceptor. Compounds are tested for their inhibition of the kinase activity.
# N-terminally GST-tagged human full length recombinant Mps-1 kinase (purchased from Invitrogen, Karslruhe, Germany, cat. no PV4071) was used. As substrate for the kinase reaction a biotinylated peptide of the amino-acid sequence biotin-Ahx-PWDPDDADITEILG (C-terminus in amide form, purchased from Biosyntan GmbH, Berlin) was used.
# For the assay 50 nl of a 100-fold concentrated solution of the test compound in DMSO was pipetted into a black low volume 384we11 microtiter plate (Greiner Bio-One, Frickenhausen, Germany), 2 μl of a solution of Mps-1 in assay buffer [0.1 mM sodium-ortho-vanadate, 10 mM MgCl2,2 mM DTT, 25 mM Hepes pH 7.7, 0.05% BSA (w/v), 0.001% Pluronic F-127] were added and the mixture was incubated for 15 min at 22° C. to allow pre-binding of the test compounds to Mps-1 before the start of the kinase reaction. Then the kinase reaction was started by the addition of 3 μl of a solution of 16.7 μM adenosine-tri-phosphate (ATP, 16.7 μM=>final conc. in the 5 μl assay volume is 10 μM) and peptide substrate (1.67 μM=>final conc. in the 5 μl assay volume is 1 μM) in assay buffer and the resulting mixture was incubated for a reaction time of 60 min at 22° C. The concentration of Mps-1 in the assay was adjusted to the activity of the enzyme lot and was chosen appropriate to have the assay in the linear range, typical enzyme concentrations were in the range of about 0.5 nM (final conc. in the 5 μl assay volume). The reaction was stopped by the addition of 5 μl of a solution of TR-FRET detection reagents (100 mM Hepes pH 7.4, 0.1% BSA, 40 mM EDTA, 140 nM Streptavidin-XLent [#61GSTXLB, Fa. Cis Biointernational, Marcoule, France], 1.5 nM anti-phospho(Ser/Thr)-Europium-antibody [#AD0180, PerkinElmer LAS, Rodgau-Jugesheinn, Germany]. Instead of the 1.5 nM anti-phospho(Ser/Thr)-Europium-antibody a mixture of 2 nM unlabeled anti-phospho ser/thr-pro antibody MPM-2 [Millipore cat. #05-368] and 1 nM LANCE EU-W1024 labeled anti-mouse IgG antibody [Perkin-Elmer, product no. AD0077] can be used).
# The resulting mixture was incubated 1 h at 22° C. to allow the binding of the phosphorylated peptide to the anti-phospho(Ser/Thr)-Europium-antibody. Subsequently the amount of phosphorylated substrate was evaluated by measurement of the resonance energy transfer from the Europium-labelled anti-phospho(Ser/Thr) antibody to the Streptavidin-XLent. Therefore, the fluorescence emissions at 620 nm and 665 nm after excitation at 350 nm was measured in a Viewlux TR-FRET reader (PerkinElmer LAS, Rodgau-Jugesheinn, Germany). The “blank-corrected normalized ratio” (a Viewlux specific readout, similar to the traditional ratio of the emissions at 665 nm and at 622 nm, in which blank and Eu-donor crosstalk are subtracted from the 665 nm signal before the ratio is calculated) was taken as the measure for the amount of phosphorylated substrate. The data were normalised (enzyme reaction without inhibitor=0% inhibition, all other assay components but no enzyme=100% inhibition).
row,SMILES,IC50
1,"Cc1nsc(Nc2cnc(C(F)(F)F)cn2)c1C(=O)Nc1ccc(OCC2CCN(C(=O)OC(C)(C)C)C2)nc1 (stereo not shown) [Example 109, tert-Butyl 3-{[(5-{[(3-methyl-5-{[5-(trifluoromethyl)pyrazin-2-yl]amino}-1,2-thiazol-4-yl)carbonyl]amino}pyridin-2-yl)oxy]methyl}pyrrolidine-1-carboxylate]",≥ 20 µM
2,"Cc1nsc(Nc2cncc(C(F)(F)F)n2)c1C(=O)Nc1ccc(OCC2CCN(C(=O)OC(C)(C)C)C2)nc1 (stereo not shown) [Example 110, tert-Butyl 3-{[(5-{[(3-methyl-5-{[6-(trifluoromethyl)pyrazin-2-yl]amino}-1,2-thiazol-4-yl)carbonyl]amino}pyridin-2-yl)oxy]methyl}pyrrolidine-1-carboxylate]",≥ 20 µM
3,"CNS(=O)(=O)c1ccc(NC(=O)c2c(C)nsc2Nc2cnc3ccccc3n2)cc1 [Example 111, 3-Methyl-N-[4-(methylsulfannoyl)phenyl]-5-(quinoxalin-2-ylamino)-1,2-thiazole-4-carboxamide]",≥ 20 µM
4,"CC(=O)N(C)CCOc1ccc(NC(=O)c2c(C)nsc2Nc2nc3c(C(F)(F)F)cccc3s2)cn1 [Example 112, N-(6-{2-[Acetyl(methyl)amino]-ethoxy}pyridin-3-yl)-3-methyl-5-{[4-(trifluoromethyl)-1,3-benzothiazol-2-yl]amino}-1,2-thiazole-4-carboxamide]",≥ 20 µM
5,"Cc1nsc(Nc2cnc3ccccc3n2)c1C(=O)Nc1cccc(C(=O)N2CCCC2)c1 [Example 113, 3-Methyl-N-[3-(pyrrolidin-1-ylcarbonyl)phenyl]-5-(quinoxalin-2-ylamino)-1,2-thiazole-4-carboxamide]",12 µM
6,"Cc1nsc(Nc2cc(C#N)ccn2)c1C(=O)Nc1cccc(C(=O)N2CCCC2)c1 [Example 114, 5-[(4-Cyanopyridin-2-yl)amino]-3-methyl-N-[3-(pyrrolidin-1-ylcarbonyl)phenyl]-1,2-thiazole-4-carboxamide]",≥ 20 µM
7,"Cc1nsc(Nc2cnc3ccccc3n2)c1C(=O)Nc1ccc(S(C)(=O)=O)cc1 [Example 115, 3-Methyl-N-[4-(methylsulfonyl)phenyl]-5-(quinoxalin-2-ylamino)-1,2-thiazole-4-carboxamide]",≥ 20 µM
8,"CCNS(=O)(=O)c1ccc(NC(=O)c2c(C)nsc2Nc2cnc3ccccc3n2)cc1 [Example 116, N-[4-(Ethylsulfamoyl)phenyl]-3-methyl-5-(quinoxalin-2-ylamino)-1,2-thiazole-4-carboxamide]",≥ 20 µM
9,"Cc1nsc(Nc2cnc3ccccc3n2)c1C(=O)Nc1ccc(Oc2cccc(C(F)(F)F)c2)nc1 [Example 117, 3-Methyl-5-(quinoxalin-2-ylamino)-N-{6-[3-(trifluoromethyl)phenoxy]pyridin-3-yl}-1,2-thiazole-4-carboxamide]",≥ 20 µM
10,"Cc1nsc(Nc2ccc(C#N)cn2)c1C(=O)Nc1ccc(Oc2cccc(C(F)(F)F)c2)nc1 [Example 118, 5-[(5-Cyanopyridin-2-yl)amino]-3-methyl-N-{6-[3-(trifluoromethyl)phenoxy]pyridin-3-yl}-1,2-thiazole-4-carboxamide]",≥ 20 µM

# Now from value to compound:
row,IC50,SMILES
1,≥ 20 µM,"Cc1nsc(Nc2cc(C#N)ccn2)c1C(=O)Nc1ccc(Oc2cccnc2)nc1 [Example 119, 5-[(4-Cyanopyridin-2-yl)amino]-3-methyl-N-[6-(pyridin-3-yloxy)pyridin-3-yl]-1,2-thiazole-4-carboxamide]"
2,≥ 20 µM,"Cc1nsc(Nc2cnc(C(F)(F)F)cn2)c1C(=O)Nc1ccc(OCC2CCN(CCF)C2)nc1 (stereo not shown) [Example 121, N-(6-{[1-(2-fluoroethyl)pyrrolidin-3-yl]methoxy}pyridin-3-yl)-3-methyl-5-{[5-(trifluoromethyl)pyrazin-2-yl]amino}-1,2-thiazole-4-carboxamide]"
3,≥ 20 µM,"Cc1nsc(Nc2cnc(C(F)(F)F)cn2)c1C(=O)Nc1ccc(OCC2CCN(CC(F)F)C2)nc1 (stereo not shown) [Example 122, N-(6-{[1-(2,2-difluoroethyl)pyrrolidin-3-yl]methoxy}pyridin-3-yl)-3-methyl-5-{[5-(trifluoromethyl)pyrazin-2-yl]amino}-1,2-thiazole-4-carboxamide]"
4,≥ 20 µM,"Cc1nsc(Nc2cnc(C(F)(F)F)cn2)c1C(=O)Nc1ccc(OCC2CCN(CC(F)(F)F)C2)nc1 (stereo not shown) [Example 123, 3-Methyl-N-(6-{[1-(2,2,2-trifluoroethyl)pyrrolidin-3-yl]methoxy}pyridin-3-yl)-5-{[5-(trifluoromethyl)pyrazin-2-yl]amino}-1,2-thiazole-4-carboxamide]"
5,≥ 20 µM,"Cc1nsc(Nc2cnc(C(F)(F)F)cn2)c1C(=O)Nc1ccc(OCC2CCN(CCC(F)(F)F)C2)nc1 (stereo not shown) [Example 124, 3-methyl-5-{[5-(trifluoromethyl)pyrazin-2-yl]amino}-N-(6-{[1-(3,3,3-trifluoropropyl)pyrrolidin-3-yl]methoxy}pyridin-3-yl)-1,2-thiazole-4-carboxamide]"
6,> 20 µM,"Cc1nsc(Nc2cnc(C(F)(F)F)cn2)c1C(=O)Nc1ccc(OC[C@@H]2CCN(CC(F)(F)F)C2)nc1 [Example 128, 3-Methyl-N-(6-{[(3R)-1-(2,2,2-trifluoroethyl)pyrrolidin-3-yl]methoxy}pyridin-3-yl)-5-{[5-(trifluoromethyl)pyrazin-2-yl]amino}-1,2-thiazole-4-carboxamide]"
7,> 20 µM,"Cc1nsc(Nc2cnc(C(F)(F)F)cn2)c1C(=O)Nc1ccc(OC[C@@H]2CCN(CCC(F)(F)F)C2)nc1 [Example 129, 3-Methyl-5-{[5-(trifluoromethyl)pyrazin-2-yl]amino}-N-(6-{[(3R)-1-(3,3,3-trifluoropropyl)pyrrolidin-3-yl]methoxy}pyridin-3-yl)-1,2-thiazole-4-carboxamide]"
8,> 20 µM,"Cc1nsc(Nc2cnc(C(F)(F)F)cn2)c1C(=O)Nc1ccc(O[C@@H]2CCN(CC(F)F)C[C@@H]2F)nc1 [Example 137, N-(6-{[(3S,4R)-1-(2,2-difluoroethyl)-3-fluoropiperidin-4-yl]oxy}pyridin-3-yl)-3-methyl-5-{[5-(trifluoromethyl)pyrazin-2-yl]amino}-1,2-thiazole-4-carboxamide]"
9,> 20 µM,"Cc1nsc(Nc2cnc(C(F)(F)F)cn2)c1C(=O)Nc1ccc(O[C@@H]2CCN(CC(F)(F)F)C[C@@H]2F)nc1 [Example 138, N-(6-{[(3S,4R)-3-fluoro-1-(2,2,2-trifluoroethyl)piperidin-4-yl]oxy}pyridin-3-yl)-3-methyl-5-{[5-(trifluoromethyl)pyrazin-2-yl]amino}-1,2-thiazole-4-carboxamide]"
